# Tests used:
# COR-L23 = assay: cells; type: functional, cell-based, Homo sapiens; conditions: Homo sapiens, COR-L23;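 also: cell viability assay measuring how strongly compounds suppress growth of COR-L23 cells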
# Description: SANGER: Inhibition of human COR-L23 cell growth in a cell viability assay.
# CP50-MEL-B = assay: cells; type: functional, cell-based, Homo sapiens; conditions: Homo sapiens, CP50-MEL-B;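 also: growth inhibition of the human cell line, measured with a cell viability read-out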
# Description: SANGER: Inhibition of human CP50-MEL-B cell growth in a cell viability assay.
# CPC-N = assay: cells; type: functional, cell-based, Homo sapiens; conditions: Homo sapiens, CPC-N;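 also: growth inhibition of CPC-N cells, with a cell viability assay as the readout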
# Description: SANGER: Inhibition of human CPC-N cell growth in a cell viability assay.
# Ca-Ski = assay: cells; type: functional, cell-based, Homo sapiens; conditions: Homo sapiens, Ca-Ski;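 also: cell viability assay measuring inhibition of Ca-Ski cell growth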
# Description: SANGER: Inhibition of human Ca-Ski cell growth in a cell viability assay.
# DMS-153 = assay: cells; type: functional, cell-based, Homo sapiens; conditions: Homo sapiens, DMS-153
# Description: SANGER: Inhibition of human DMS-153 cell growth in a cell viability assay.
# EB-3 = assay: cells; type: functional, cell-based, Homo sapiens; conditions: Homo sapiens, EB-3;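 also: human EB-3 cells, growth inhibition read out via a cell viability assay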
# Description: SANGER: Inhibition of human EB-3 cell growth in a cell viability assay.
# G-402 = assay: cells; type: functional, cell-based, Homo sapiens; conditions: Homo sapiens, G-402
# Description: SANGER: Inhibition of human G-402 cell growth in a cell viability assay.
# HuO-3N1 = assay: cells; type: functional, cell-based, Homo sapiens; conditions: Homo sapiens, HuO-3N1;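 also: cell viability readout used to measure how strongly compounds suppress proliferation of human HuO-3N1 cells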
# Description: SANGER: Inhibition of human HuO-3N1 cell growth in a cell viability assay.
# K052 = assay: cells; type: functional, cell-based, Homo sapiens; conditions: Homo sapiens, K052;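 also: Read-out from a cell viability assay, IC50 reflecting suppression of K052 cell growth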
# Description: SANGER: Inhibition of human K052 cell growth in a cell viability assay.
# MC-CAR = assay: cells; type: functional, cell-based, Homo sapiens; conditions: Homo sapiens, MC-CAR;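 also: growth inhibition of the human MC-CAR cell line, read out by a cell viability assay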
# Description: SANGER: Inhibition of human MC-CAR cell growth in a cell viability assay.
# MDA-MB-157 = assay: cells; type: functional, cell-based, Homo sapiens; conditions: Homo sapiens, MDA-MB-157
# Description: SANGER: Inhibition of human MDA-MB-157 cell growth in a cell viability assay.
# MDA-MB-231 = assay: cells; type: functional, cell-based, Homo sapiens; conditions: Homo sapiens, MDA-MB-231
# Description: SANGER: Inhibition of human MDA-MB-231 cell growth in a cell viability assay.
# MFE-280 = assay: cells; type: functional, cell-based, Homo sapiens; conditions: Homo sapiens, MFE-280;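 also: growth inhibition of MFE-280 cells, determined with a cell viability readout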
# Description: SANGER: Inhibition of human MFE-280 cell growth in a cell viability assay.
# NCCIT = assay: SANGER: Inhibition of human NCCIT cell growth in a cell viability assay.; type: functional, cell-based; conditions: Homo sapiens, NCCIT
# NCI-H1573 = assay: cells; type: functional, cell-based, Homo sapiens; conditions: Homo sapiens, NCI-H1573;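 also: growth inhibition of NCI-H1573 cells, read out with a cell viability assay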
# Description: SANGER: Inhibition of human NCI-H1573 cell growth in a cell viability assay.
# NCI-H1651 = assay: cells; type: functional, cell-based, Homo sapiens; conditions: Homo sapiens, NCI-H1651;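 also: Read-out is a cell viability assay, with IC50 expressing inhibition of NCI-H1651 cell growth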
# Description: SANGER: Inhibition of human NCI-H1651 cell growth in a cell viability assay.
# NCI-H187 = assay: cells; type: functional, cell-based, Homo sapiens; conditions: Homo sapiens, NCI-H187;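 also: growth inhibition of NCI-H187 cells, read out as cell viability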
# Description: SANGER: Inhibition of human NCI-H187 cell growth in a cell viability assay.
# NCI-H1993 = assay: cells; type: functional, cell-based, Homo sapiens; conditions: Homo sapiens, NCI-H1993;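 also: growth inhibition of the cancer cell line, assessed with a cell viability assay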
# Description: SANGER: Inhibition of human NCI-H1993 cell growth in a cell viability assay.
# NCI-H2342 = assay: cells; type: functional, cell-based, Homo sapiens; conditions: Homo sapiens, NCI-H2342;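 also: growth inhibition of the cancer cell line, determined with a cell viability assay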
# Description: SANGER: Inhibition of human NCI-H2342 cell growth in a cell viability assay.
# NCI-H322M = assay: cells; type: functional, cell-based, Homo sapiens; conditions: Homo sapiens, NCI-H322M;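 also: cell viability assay measuring inhibition of growth of human NCI-H322M cells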
# Description: SANGER: Inhibition of human NCI-H322M cell growth in a cell viability assay.
# NCI-H64 = assay: cells; type: functional, cell-based, Homo sapiens; conditions: Homo sapiens, NCI-H64;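 also: growth inhibition of NCI-H64 cells, read out with a cell viability assay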
# Description: SANGER: Inhibition of human NCI-H64 cell growth in a cell viability assay.
# NCI-H719 = assay: cells; type: functional, cell-based, Homo sapiens; conditions: Homo sapiens, NCI-H719;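 also: growth inhibition of the cultured cell line, read out with a viability assay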
# Description: SANGER: Inhibition of human NCI-H719 cell growth in a cell viability assay.
# OAW-42 = assay: cells; type: functional, cell-based, Homo sapiens; conditions: Homo sapiens, OAW-42;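 also: growth inhibition of OAW-42 cells, read out with a cell viability assay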
# Description: SANGER: Inhibition of human OAW-42 cell growth in a cell viability assay.
# OVCAR-8 = assay: cells; type: functional, cell-based, Homo sapiens; conditions: Homo sapiens, OVCAR-8;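 also: growth inhibition of human OVCAR-8 cells, read out by a cell viability assay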
# Description: SANGER: Inhibition of human OVCAR-8 cell growth in a cell viability assay.
# P31-FUJ = assay: cells; type: functional, cell-based, Homo sapiens; conditions: Homo sapiens, P31-FUJ;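 also: growth inhibition of P31-FUJ cells, read out with a viability assay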
# Description: SANGER: Inhibition of human P31-FUJ cell growth in a cell viability assay.
# PANC-08-13 = assay: cells; type: functional, cell-based, Homo sapiens; conditions: Homo sapiens, PANC-08-13
# Description: SANGER: Inhibition of human PANC-08-13 cell growth in a cell viability assay.
# SF-295 = assay: cells; type: functional, cell-based, Homo sapiens; conditions: Homo sapiens, SF-295;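 also: growth inhibition of SF-295 cells, read out with a cell viability assay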
# Description: SANGER: Inhibition of human SF295 cell growth in a cell viability assay.
# SK-HEP1 = assay: cells; type: functional, cell-based, Homo sapiens, SK-HEP-1; conditions: Homo sapiens, SK-HEP1;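 also: cell viability readout used to quantify reduction in proliferation of human SK-HEP-1 cells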
# Description: SANGER: Inhibition of human SK-HEP-1 cell growth in a cell viability assay.
# SK-MM-2 = assay: cells; type: functional, cell-based, Homo sapiens; conditions: Homo sapiens, SK-MM-2;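 also: growth inhibition of human SK-MM-2 cells, read out with a cell viability assay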
# Description: SANGER: Inhibition of human SK-MM-2 cell growth in a cell viability assay.
# SKG-IIIa = assay: cells; type: functional, cell-based, Homo sapiens; conditions: Homo sapiens, SKG-IIIa;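 also: cell growth inhibition, read out with a cell viability assay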
# Description: SANGER: Inhibition of human SKG-IIIa cell growth in a cell viability assay.
# SNU-387 = assay: cells; type: functional, cell-based, Homo sapiens; conditions: Homo sapiens, SNU-387
# Description: SANGER: Inhibition of human SNU-387 cell growth in a cell viability assay.
# SW1783 = assay: cells; type: functional, cell-based, Homo sapiens; conditions: Homo sapiens, SW1783
# Description: SANGER: Inhibition of human SW1783 cell growth in a cell viability assay.
# SW48 = assay: cells; type: functional, cell-based, Homo sapiens; conditions: Homo sapiens, SW48;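 also: growth inhibition of SW48 cells, read out with a cell viability assay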
# Description: SANGER: Inhibition of human SW48 cell growth in a cell viability assay.
# SW756 = assay: cells; type: functional, cell-based, Homo sapiens; conditions: Homo sapiens, SW756;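 also: growth inhibition of human SW756 cells, read out with a cell viability assay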
# Description: SANGER: Inhibition of human SW756 cell growth in a cell viability assay.
# SiHa = assay: cells; type: functional, cell-based, Homo sapiens; conditions: Homo sapiens, SiHa;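 also: Viability-based readout of growth inhibition in SiHa cells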
# Description: SANGER: Inhibition of human SiHa cell growth in a cell viability assay.
# T98G = assay: cells; type: functional, cell-based, Homo sapiens; conditions: Homo sapiens, T98G;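 also: growth inhibition of T98G cells, read out by a cell viability assay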
# Description: SANGER: Inhibition of human T98G cell growth in a cell viability assay.
# A204 = assay: cells; type: functional, cell-based, Homo sapiens; conditions: Homo sapiens, A204;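 also: growth inhibition of human A204 cells, read out with a cell viability assay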
# Description: SANGER: Inhibition of human A204 cell growth in a cell viability assay.
# ASPC1 = assay: cells; type: functional, cell-based, Homo sapiens; conditions: Homo sapiens, ASPC1;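 also: growth inhibition of AsPC-1 cells, read out with a cell viability assay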
# Description: SANGER: Inhibition of human AsPC-1 cell growth in a cell viability assay.
# BPH-1 = assay: cells; type: functional, cell-based, Homo sapiens; conditions: Homo sapiens, BPH-1;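 also: cell viability assay measuring growth inhibition of human BPH-1 cells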
# Description: SANGER: Inhibition of human BPH-1 cell growth in a cell viability assay.
# CAL-12T = assay: cells; type: functional, cell-based, Homo sapiens; conditions: Homo sapiens, CAL-12T;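 also: growth inhibition of human CAL-12T cells, read out with a cell viability assay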
# Description: SANGER: Inhibition of human CAL-12T cell growth in a cell viability assay.
# TUR = assay: cells; type: functional, cell-based, Homo sapiens; conditions: Homo sapiens, TUR;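 also: growth inhibition of human TUR cells, read out with a cell viability assay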
# Description: SANGER: Inhibition of human TUR cell growth in a cell viability assay.
# U2OS = assay: cells; type: functional, cell-based, Homo sapiens, U-2-OS; conditions: Homo sapiens, U2OS;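 also: growth inhibition of human U-2-OS cells, determined with a cell viability assay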
# Description: SANGER: Inhibition of human U-2-OS cell growth in a cell viability assay.
# UACC-893 = assay: cells; type: functional, cell-based, Homo sapiens; conditions: Homo sapiens, UACC-893
# Description: SANGER: Inhibition of human UACC-893 cell growth in a cell viability assay.
# UMC-11 = assay: cells; type: functional, cell-based, Homo sapiens; conditions: Homo sapiens, UMC-11;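 also: growth inhibition of UMC-11 cells, read out with a cell viability assay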
# Description: SANGER: Inhibition of human UMC-11 cell growth in a cell viability assay.
# VM-CUB-1 = assay: cells; type: functional, cell-based, Homo sapiens; conditions: Homo sapiens, VM-CUB-1;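 also: cell viability assay measuring growth inhibition of the human VM-CUB-1 cell line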
# Description: SANGER: Inhibition of human VM-CUB-1 cell growth in a cell viability assay.
smiles,measurement,setting,value
Oc1ccc2ccccc2c1SSc1c(O)ccc2ccccc12,IC50,COR-L23,11.8 µM
same,IC50,CP50-MEL-B,> 32000 nM
same,IC50,CPC-N,> 32 µM
same,IC50,Ca-Ski,> 32 µM
same,IC50,DMS-153,> 32 µM
same,IC50,EB-3,10.5 µM
same,IC50,G-402,> 32 µM
same,IC50,HuO-3N1,> 32 µM
same,IC50,K052,> 32 µM
same,IC50,MC-CAR,5.71 µM
same,IC50,MDA-MB-157,> 32 µM
same,IC50,MDA-MB-231,> 32 µM
same,IC50,MFE-280,> 32000 nM
same,IC50,NCCIT,29.8 µM
same,IC50,NCI-H1573,> 32 µM
same,IC50,NCI-H1651,> 32 µM
same,IC50,NCI-H187,> 32 µM
same,IC50,NCI-H1993,> 32 µM
same,IC50,NCI-H2342,> 32 µM
same,IC50,NCI-H322M,> 32 µM
same,IC50,NCI-H64,> 32 µM
same,IC50,NCI-H719,12.9 µM
same,IC50,OAW-42,> 32000 nM
same,IC50,OVCAR-8,> 32 µM
same,IC50,P31-FUJ,> 32 µM
same,IC50,PANC-08-13,> 32 µM
same,IC50,SF-295,> 32000 nM
same,IC50,SK-HEP1,> 32000 nM
same,IC50,SK-MM-2,> 32 µM
same,IC50,SKG-IIIa,> 32 µM
same,IC50,SNU-387,> 32 µM
same,IC50,SW1783,> 32 µM
same,IC50,SW48,21.9 µM
same,IC50,SW756,> 32000 nM
same,IC50,SiHa,> 32 µM
same,IC50,T98G,> 32 µM
same,IC50,A204,> 32 µM
same,IC50,ASPC1,> 32 µM
same,IC50,BPH-1,> 32 µM
same,IC50,CAL-12T,5.64 µM
same,IC50,TUR,> 32 µM
same,IC50,U2OS,> 32 µM
same,IC50,UACC-893,> 32 µM
same,IC50,UMC-11,> 32000 nM
same,IC50,VM-CUB-1,> 32 µM
Cc1cc([N+](=O)[O-])ccc1NS(=O)(=O)c1cc(Cl)ccc1Cl,IC50,COR-L23,2.63 µM
same,IC50,CP50-MEL-B,1030 nM
same,IC50,CPC-N,> 32 µM
same,IC50,Ca-Ski,12.1 µM
same,IC50,DMS-153,29.1 µM
same,IC50,EB-3,4.25 µM
same,IC50,G-402,4.65 µM
same,IC50,HuO-3N1,13.4 µM
same,IC50,K052,14.2 µM
same,IC50,MC-CAR,8.99 µM
same,IC50,MDA-MB-157,8.59 µM
same,IC50,MDA-MB-231,14.3 µM
same,IC50,MFE-280,2770 nM
same,IC50,NCCIT,13.4 µM
same,IC50,NCI-H1573,> 32 µM
same,IC50,NCI-H1651,3.94 µM
same,IC50,NCI-H187,12.3 µM
same,IC50,NCI-H1993,17.2 µM
same,IC50,NCI-H2342,4.93 µM
same,IC50,NCI-H322M,> 32 µM
same,IC50,NCI-H64,> 32 µM
same,IC50,NCI-H719,> 32 µM
same,IC50,OAW-42,2780 nM
same,IC50,OVCAR-8,4.26 µM
same,IC50,P31-FUJ,7.77 µM
same,IC50,PANC-08-13,> 32 µM
same,IC50,SF-295,2340 nM
same,IC50,SK-HEP1,2880 nM
same,IC50,SK-MM-2,> 32 µM
same,IC50,SKG-IIIa,> 32 µM
same,IC50,SNU-387,7.66 µM
same,IC50,SW1783,7.15 µM
same,IC50,SW48,2.48 µM
same,IC50,SW756,2970 nM
same,IC50,SiHa,19.7 µM
same,IC50,T98G,10.6 µM
same,IC50,A204,6.09 µM
same,IC50,ASPC1,22.3 µM
same,IC50,BPH-1,12.2 µM
same,IC50,CAL-12T,1.02 µM
same,IC50,TUR,9.58 µM
same,IC50,U2OS,> 32 µM
same,IC50,UACC-893,3.06 µM
same,IC50,UMC-11,1090 nM
same,IC50,VM-CUB-1,8.15 µM

# Source: ChEMBL document CHEMBL1201861, “Genomics of Drug Sensitity in Cancer screening data, Wellcome Trust Sanger Institute”
